# Calls of active or inactive are those of the source. The calls are words filed in the database; no cut-off is given here.
# Key:
# LNCaP [1] = assay: Antiproliferative activity against human LNCAP cells after 48 hrs by MTT assay; type: functional, cell-based
# LNCaP [2] = assay: Antiproliferative activity against human LNCAP cells after 48 hrs by MTT assay in the presence of 1 uM RARalpha selective antagonist Ro415253; type: functional, cell-based
# LNCaP [3] = assay: Cell cycle arrest in human LNCAP cells assessed as accumulation at G0/G1 phase after 48 hrs by flow cytometry; type: functional
# LNCaP [4] = assay: Cell cycle arrest in human LNCAP cells assessed as accumulation at S phase after 48 hrs by flow cytometry; type: functional
# LNCaP [5] = assay: Cell cycle arrest in human LNCAP cells assessed as accumulation at G2/M phase after 48 hrs by flow cytometry; type: functional
# LNCaP [6] = assay: Antiproliferative activity against human LNCAP cells assessed as maximal effect at 10 uM after 48 hrs by MTT assay; type: functional, cell-based
# LNCaP [7] = assay: Effect on morphology in human LNCAP cells assessed as elongation of cells by phase-contrast microscopy; type: functional, cell-based
IC50 (LNCaP [1]),Compound,Activity (LNCaP [1]),Activity (LNCaP [2]),Activity (LNCaP [3]),Activity (LNCaP [4]),Activity (LNCaP [5]),Activity (LNCaP [6]),Activity (LNCaP [7])
500 nM,CC1=C(/C=C/C(C)=C/C=C/C(C)=C/C(=O)O)C(C)(C)CCC1 [TRETINOIN],Dose-dependent effect,inactive,66.7%,17.6%,4.4%,Active,
270 nM,CC1=C(/C=C/C(C)=C/C=C/C(C)=C/C(=O)NCCC(=O)O)C(C)(C)CCC1,Dose-dependent effect,Active,64%,14.8%,2.2%,Active,Active
,CC1=C(/C=C/C(C)=C/C=C/C(C)=C/C(=O)NCCCCCC(=O)O)C(C)(C)CCC1,inactive,,,,,,Active
270 nM,CC1=C(/C=C/C(C)=C/C=C/C(C)=C/C(=O)N[C@@H](CC(C)C)C(=O)O)C(C)(C)CCC1,Dose-dependent effect,Active,65.9%,19.6%,1.9%,Active,
